What was measured:
[1] = cumulative food intake, diet-induced obese mice (Model B), BioDaQ system; assay type: in vivo; details: Table 1; DIO male C57BL/6 mice, 1 mg/kg s.c., cumulative food intake after 6 h, relative to vehicle; negative = reduction
Description: (§1) Cumulative food intake after 6 h was determined for the PYY analogs in either lean (Model A) or diet-induced obese (DIO) (Model B) C57BL/6 mice in a BioDaQ system for continuous monitoring of food intake (Research Diets Inc., New Brunswick, N.J.). […] Mice were placed singly into the BioDaQ cages and acclimatized for a minimum of 6 days and were allowed ad libitum access to food and water. Approximately 1 hour prior to lights-out, animals were dosed subcutaneously with either vehicle (20 mM Acetate buffer, pH 4.9 or 20% DMSO in water) or analogs dissolved in vehicle (1 mg/kg) (8 animals per group). Once all animals have been dosed, feeder gates were opened providing ad-libitum access to food. Continuous food intake was monitored and collected for 15 hours. […] P-values <0.05 were considered to indicate a significant difference between treatment groups.

[2] = target: T1, human Neuropeptide Y receptor type 2 (Homo sapiens, UniProt P49146); assay: melanophore assay, potency at human Neuropeptide Y receptor type 2; assay type: cell-based; details: Table 1, read-out: hNPY Y2 pEC50 (converted)
T1 construct: expressed in transfected cells; host or cells: melanophores (own knowledge: Xenopus laevis melanophores transfected with the receptor, as in the cited protocol)
T1 sequence (P49146 1-381): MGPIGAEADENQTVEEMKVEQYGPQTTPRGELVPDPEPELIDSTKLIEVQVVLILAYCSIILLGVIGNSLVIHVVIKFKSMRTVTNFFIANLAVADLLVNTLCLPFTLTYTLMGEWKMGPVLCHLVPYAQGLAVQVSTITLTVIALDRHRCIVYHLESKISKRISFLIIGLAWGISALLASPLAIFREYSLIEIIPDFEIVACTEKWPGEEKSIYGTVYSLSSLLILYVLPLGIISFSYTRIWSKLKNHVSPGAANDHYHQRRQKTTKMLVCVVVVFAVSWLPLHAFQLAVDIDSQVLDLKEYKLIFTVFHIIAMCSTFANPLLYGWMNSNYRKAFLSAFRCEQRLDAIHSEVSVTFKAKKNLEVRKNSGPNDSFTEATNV

[3] = cumulative food intake, lean mice (Model A), BioDaQ system; assay type: in vivo; details: Table 1; lean male C57BL/6 mice, 1 mg/kg s.c., cumulative food intake after 6 h, relative to vehicle; negative = reduction
Description: as §1

Compound | % reduction in food intake, model B [1] | EC50 [2] | % reduction in food intake, model A [3]
CC(C)C[C@H](NC(=O)[C@H](CO)NC(=O)[C@H](C)NC(=O)[C@H](Cc1ccc(O)cc1)NC(=O)[C@H](Cc1ccc(O)cc1)NC(=O)[C@H](CCCNC(=N)N)NC(=O)[C@H](CC(N)=O)NC(=O)[C@H](Cc1c[nH]c2ccccc12)NC(=O)[C@H](CCC(=O)O)NC(=O)[C@H](CCC(=O)O)NC(=O)[C@@H]1CCCN1C(=O)[C@H](CO)NC(=O)[C@H](C)NC(=O)[C@H](CC(=O)O)NC(=O)[C@H](CCCCN)NC(=O)CNC(=O)[C@@H]1CCCN1C(=O)[C@H](Cc1c[nH]cn1)NC(=O)[C@H](CCC(=O)O)NC(=O)[C@@H]1CCCN1C(=O)[C@H](CCCCN)NC(=O)[C@@H]1CCCN1)C(=O)N[C@@H](CCCNC(=N)N)C(=O)N[C@@H](CCCCN)C(=O)N[C@@H](Cc1ccc(O)cc1)C(=O)N[C@@H](CC(C)C)C(=O)N[C@@H](CC(N)=O)C(=O)N[C@@H](Cc1c[nH]c2ccccc12)C(=O)N[C@H](C(=O)N[C@H](C(=O)N[C@@H](CCCNC(=N)N)C(=O)N[C@@H](CCC(N)=O)C(=O)N[C@@H](CCCNC(=N)N)C(=O)N[C@@H](Cc1ccc(O)cc1)C(N)=O)[C@@H](C)O)C(C)C [Example 25] | −68% | – | –
CC(C)C[C@H](NC(=O)[C@H](CC(=O)O)NC(=O)[C@H](C)NC(=O)[C@H](Cc1ccc(O)cc1)NC(=O)[C@H](Cc1ccc(O)cc1)NC(=O)[C@H](CCCNC(=N)N)NC(=O)[C@H](CC(N)=O)NC(=O)[C@H](Cc1c[nH]c2ccccc12)NC(=O)[C@H](CCC(=O)O)NC(=O)[C@H](CCC(=O)O)NC(=O)[C@@H]1CCCN1C(=O)[C@H](CO)NC(=O)[C@H](C)NC(=O)[C@H](CC(=O)O)NC(=O)[C@H](CCCCN)NC(=O)CNC(=O)[C@@H]1CCCN1C(=O)[C@H](C)NC(=O)[C@H](CCC(=O)O)NC(=O)[C@@H]1CCCN1C(=O)[C@H](CCCCN)NC(=O)[C@@H]1CCCN1)C(=O)N[C@@H](CCCNC(=N)N)C(=O)N[C@@H](CCCCN)C(=O)N[C@@H](Cc1ccc(O)cc1)C(=O)N[C@@H](CC(C)C)C(=O)N[C@@H](CC(N)=O)C(=O)N[C@@H](Cc1c[nH]c2ccccc12)C(=O)N[C@@H](CC(C)C)C(=O)N[C@H](C(=O)N[C@@H](CCCNC(=N)N)C(=O)N[C@@H](CCC(N)=O)C(=O)N[C@@H](CCCNC(=N)N)C(=O)N[C@@H](Cc1ccc(O)cc1)C(N)=O)[C@@H](C)O [Example 4] | – | 0.02 nM | −83%

Source: patent US9441023B2, “Peptide YY analogs” (GlaxoSmithKline Intellectual Property Development Limited, priority 2013, dated 2016)
